Measurements from US20260207570A1, “OPTIMIZED DOSING OF LERIGLITAZONE” (MINORYX THERAPEUTICS S.L., priority 2022, published 2026).
Like-named read-outs stand apart in the source and are kept apart here.

How the values were obtained:
[1] = Phase 1 multiple ascending dose (MAD) pharmacokinetics with CSF collection in healthy volunteers; format: in vivo, human; details: for accumulation RCmax: day 8 vs day 1; for Kp at 4 h / concentration at 4 h / Tmax / Vd/F / Cmax: male, human, oral; for Kp at 4 h: CSF and plasma; for Tmax: Median, read-out: Tmax; for Vd/F: read-out: Vz/F; for Cmax: plasma total, geometric mean, read-out: Cmax
Description: (§1) Study design: A phase 1, randomized, double blind, placebo-controlled, single-center clinical study in 33 male healthy volunteers (HV) (19-54 years, 63.2-95.7 Kg) was conducted with leriglitazone HCl and divided in two parts: a single ascending dose (SAD) with three dose levels (30, 90 and 270 mg) in fasted conditions, followed with two dose levels (90 and 270 mg) in fed conditions; a multiple ascending dose (MAD) with a double-blind, parallel-design with two dose levels (135 and 270 mg) for 8 days and a separate cohort of subjects in an open-label parallel design with two dose levels (135 and 270 mg) including cerebrospinal fluid (CSF) collection on day 8. In the fasted conditions a fasting period of at least 4 hours was required before obtaining plasma samples. The food effect (FE) was assessed by comparing fasted with fed conditions (dosing after a high-fat breakfast per FDA definition with a calculated caloric content of 918 kcal). In the MAD part (fed) the medication was taken before a normal breakfast. Leriglitazone HCl was supplied by ChemConnection and an oral suspension of leriglitazone (20% w/v kleptose, 2% ethanol in 100 mM phosphate buffer pH=7.8) at 6 mg/ml was used in the study.
(§2) Blood, Urine and CSF sampling: In the SAD, blood samples were drawn at the following time points: pre-dose and 0.25, 0.5, 0.75, 1, 1.5, 2, 2.5, 3, 4, 5, 6, 8, 10, 12, 16, 24, 36, 48, 72, 96 and 120 hours post-dose. Urine was collected at pre-dose (within 12 hours prior to dosing) and over 0-6, 6-12, 12-24, 24-36, 36-48 hours post-dose collection intervals. In the MAD, blood samples were collected on day 1 at pre-dose and 0.25, 0.5, 0.75, 1, 1.5, 2, 2.5, 3, 4, 5, 6, 8, 10, 12, and 16 hours post-dose and at pre-dose and at 4 hours post-dose on day 2 to day 7, and on day 8 at pre-dose and 0.25, 0.5, 0.75, 1, 1.5, 2, 2.5, 3, 4, 5, 6, 8, 10, 12, 16, 24, 36, 48, 72, 96 and 120 hours post-dose. CSF were taken on day −1 and on day 8, at 4 hours post-dose.
(§3) Pharmacokinetic parameter calculation: PK parameters (Cmax, Tmax, t1/2, AUC0-t, CL/F, Vz/F, AUC0-t, RAUC, RCmax) were estimated using non-compartmental analysis (NCA) (Phoenix WinNonlin® Version 6.3).
(§4) Statistical analysis: Descriptive statistics for all relevant PK parameters: n, mean, minimum, median, maximum, geometric mean, and coefficient of variation (CV %); analysis of variance on Cmax and AUC to determine dose proportionality and food effect (FE).
The ratio of unbound leriglitazone concentration in brain to unbound concentration in plasma (Kpu,u; Cb,u/Cp,u) was calculated dividing the unbound CSF Cmax by the unbound plasma Cmax. Fractions unbound in plasma (fu,p) to obtain the unbound Cmax values were already reported. Rodriguez-Pascau, L. et al., Sci. Transl. Med. 13, eabc0555 (2021).

[2] = Phase 1 single ascending dose (SAD) pharmacokinetics in healthy volunteers; format: in vivo, human; details: for half-life / Tmax / Cmax / AUC(0-t) / AUC: male, human, plasma, oral; for Tmax: read-out: Tmax; for Cmax: plasma total, read-out: Cmax; for AUC(0-t) / AUC: geometric mean; for AUC: read-out: AUC
Description: as §1, §2, §3, §4

[3] = plasma, 135 mg, 135 mg MD Day 1, n = 8
[4] = plasma, 135 mg, 135 mg MD Day 8, n = 8
[5] = plasma, 270 mg, 270 mg MD Day 1, n = 8
[6] = plasma, 270 mg, 270 mg MD Day 8, n = 7

CL/F ([1]; 135 mg MD Day 1, n = 8, geometric mean (CV %)): 3.69 (29.4) L./h
CL/F ([1]; 135 mg MD Day 8, n = 8, geometric mean (CV %)): 2.15 (27.6) L./h
CL/F ([1]; 270 mg MD Day 1, n = 8, geometric mean (CV %)): 3.29 (26.4) L./h
Plasma C4h ([1]; 270 mg MD Day 8, 4 hours post-dose, total, geometric mean (CV %)): :5673 (34.2) ng/mL
CL/F ([1]; 270 mg MD Day 8, n = 7, geometric mean (CV %)): 2.13 (25.9) L./h
increase of CSF concentration on doubling the dose ([1]; 270 mg vs 135 mg, day 8, 4 hours post-dose): 1.7 fold
accumulation RCmax ([1]; MAD 135 mg): 1.57
accumulation RAUC ([1]; MAD 270 mg dose): 1.63
accumulation RCmax ([1]; MAD 270 mg): 1.69
brain penetration ([1]; judged from CSF to plasma concentrations): limited
Kp at 4 h ([1]; 135 mg MD Day 8, geometric mean (CV %), read-out: CSF/Plasma): 0.004
Kp at 4 h ([1]; 270 mg MD Day 8, geometric mean (CV %), read-out: CSF/Plasma): 0.004
Kp at 4 h ([1]; day 8, 4 hours post-dose, read-out: total concentrations in CSF as share of total plasma concentrations): 0.004
concentration at 4 h ([1]; CSF, 135 mg MD Day 8, 4 hours post-dose, total, geometric mean (CV %), read-out: CSF C4h): 13 ng/mL
concentration at 4 h ([1]; CSF, 270 mg MD Day 8, 4 hours post-dose, total, geometric mean (CV %), read-out: CSF C4h): 22 ng/mL
Tmax [1, 3]: 3.5 h
Vd/F ([1]; plasma, 135 mg, 135 mg MD Day 1, n = 8, geometric mean (CV %)): 111 L
Cmax [1, 3]: 2470 ng/mL
Tmax [1, 4]: 2.75 h
Vd/F ([1]; plasma, 135 mg, 135 mg MD Day 8, n = 8, geometric mean (CV %)): 63.5 L
Cmax [1, 4]: 4150 ng/mL
Tmax [1, 5]: 3.5 h
Vd/F ([1]; plasma, 270 mg, 270 mg MD Day 1, n = 8, geometric mean (CV %)): 103 L
Cmax [1, 5]: 5360 ng/mL
Tmax [1, 6]: 2.5 h
Vd/F ([1]; plasma, 270 mg, 270 mg MD Day 8, n = 7, geometric mean (CV %)): 69.3 L
Cmax [1, 6]: 8030 ng/mL
concentration at 4 h ([1]; plasma, 135 mg MD Day 8, 4 hours post-dose, total, geometric mean (CV %), read-out: Plasma C4h): 3600 ng/mL
dose excreted in urine as free analyte ([2]; 48-hour collection period): < 0.01%
dose excreted in urine as the analyte, mostly in a conjugated state ([2]; 48-hour collection period): 0.3%
half-life ([2]; 30 mg, M3 section, SAD 30 mg fasted, n = 6, geometric mean (CV %), read-out: t1/2 (converted)): 1330 min
Tmax ([2]; 30 mg, SAD 30 mg fasted, n = 6, Median): 0.63 h
Cmax ([2]; 30 mg, SAD 30 mg fasted, n = 6, geometric mean (CV %)): 828 ng/mL
half-life ([2]; 90 mg, M3 section, SAD 90 mg fasted, n = 6, geometric mean (CV %), read-out: t1/2 (converted)): 1390 min
half-life ([2]; 90 mg, M3 section, SAD 90 mg fed, n = 3, geometric mean (CV %), read-out: t1/2 (converted)): 1540 min
Tmax ([2]; 90 mg, SAD 90 mg fasted, n = 6, Median): 0.63 h
AUC(0-t) ([2]; 90 mg, SAD 90 mg fasted, n = 6): 59400 ng·h/mL
AUC ([2]; 90 mg, SAD 90 mg fasted, n = 6): 61800 ng·h/mL
Cmax ([2]; 90 mg, SAD 90 mg fasted, n = 6, geometric mean (CV %)): 2550 ng/mL
Tmax ([2]; 90 mg, SAD 90 mg fed, n = 3, Median): 5 h
AUC(0-t) ([2]; 90 mg, SAD 90 mg fed, n = 3): 59900 ng·h/mL
AUC ([2]; 90 mg, SAD 90 mg fed, n = 3): 62200 ng·h/mL
Cmax ([2]; 90 mg, SAD 90 mg fed, n = 3, geometric mean (CV %)): 1980 ng/mL
half-life ([2]; 270 mg, M3 section, SAD 270 mg fasted, n = 5, geometric mean (CV %), read-out: t1/2 (converted)): 1300 min
half-life ([2]; 270 mg, M3 section, SAD 270 mg fed, n = 5, geometric mean (CV %), read-out: t1/2 (converted)): 1360 min
Tmax ([2]; 270 mg, SAD 270 mg fasted, n = 5, Median): 1.5 h
Tmax ([2]; 270 mg, SAD 270 mg fed, n = 5, Median): 4 h
AUC(0-t) ([2]; 270 mg, SAD 270 mg fed, n = 5): 155000 ng·h/mL
AUC ([2]; 270 mg, SAD 270 mg fed, n = 5): 159000 ng·h/mL
Cmax ([2]; 270 mg, SAD 270 mg fed, n = 5, geometric mean (CV %)): 5320 ng/mL
Tmax ([2]; 270 mg, SAD fed conditions, 90 and 270 mg): 3 to 6 h
half-life ([2]; SAD, read-out: Half-lives): 1320 to 1380 min
SMILES: CC(=O)c1ccc(CCOc2ccc(CC3SC(=O)NC3=O)cc2)nc1 (stereo not shown) [Compound M3, 5-[[4-[2-[5-acetylpyridin-2-yl]ethoxy]phenyl]methyl]-1,3-thiazolidine-2,4-dione]
